Patent US12685746B2, “Cyclodextrin derivatives in the treatment or prevention of lysosomal neurodegenerative diseases” (CYCLOLAB CYCLODEXTRIN RESEARCH AND DEVELOPMENT LABORATORY …, priority 2020, dated 2026)
“Also recorded” adds a separate entry of the source.

Experiments:
[1] = test system: zebrafish model for Niemann Pick type C1 (U18666A administration); experiment: Filipin staining of five day old zebrafish larvae pretreated with U18666A (cholesterol accumulation in the brain); assay type: in vivo, Danio rerio; settings: for Reduction in U18666A induced cholesterol accumulation in the brain: result in words; for Heavy staining (number of larvae) / Light staining (number of larvae) / No staining (number of larvae): U18666A pretreated 5 dpf larvae; for No staining (number of larvae): fluorescence in head region; for Different from placebo: X2-test vs U18666A-placebo
Method: Several cyclodextrin derivatives were evaluated in a zebrafish model for Niemann Pick type C1 (U18666A administration). Cholesterol accumulation in the brain was quantified by filipin staining of Danio rerio Casper (albino strain) larvae. Results were compared with the reference compound Hydroxypropyl-β-cyclodextrin (HPBCD).
In this study the best performing Cyclodextrins were as follows: Heptakis(2,6-di-O-methyl)-beta cyclodextrin, Octakis(2,3,6-tri-O-methyl)-gamma cyclodextrin, Sualfadex sodium, Subetadex sodium Sugammadex sodium. Filipin staining of five day old zebrafish larvae (Danio rerio, Casper strain) pretreated with U18666A were studied.
Fertilized eggs were hatched and kept in an incubator at 28° C.
CDs were administered from Stock solutions (0.1%) in standard E3 medium. Preparation of E3 medium was as follows:
The stock solutions were diluted with E3. Compounds were administered in the swimming water. Each concentration was tested in 25 larvae.
Experimental compounds were tested at a 0.05% concentration. As reference Hydroxypropyl-β-cyclodextrin (Sigma) was tested at a 0.5% concentration.
Treated 5 dpf Casper larvae were fixed for 30 minutes in 4% paraformaldehyde. After washing (2 times) with PBS, they were stained for 30 minutes with 50 μg/mL filipin (Sigma) in PBS solution. Then larvae were washed (with PBS) twice.
Whole larvae were embedded and images were captured on a Dino-Lite Digital USB microscope for GFP/FITC recordings (AM4115T4). Images were evaluated by an independent assessor, unaware of the treatments. The assessor scored the fluorescence in the head region as none, light or heavy.
Data were analysed by means of X2-tests. All conditions were compared to the U18666A—placebo treatment group.
Fluorescence was measured as an index for the amount of filipin staining. The higher the filipin staining the more cholesterol accumulation there is in the brain. Individual larvae were scored (by a blinded assessor) as either heavy coloured, light coloured or not coloured at all.

[2] = test system: 5 dpf Danio rerio larvae treated with U18666A; experiment: Mobility testing of U18666A-treated zebrafish larvae (DanioVision, distance moved); assay type: in vivo; settings: U18666A 1 microg/ml 16 hours, then CD 24 hours (0.5-5%); result in words, values only in FIG. 1
Method: Danio rerio larvae (strain AB, Casper) 5 days post fertilization (dpf) at day of testing were treated with U18666A dissolved in standard E3 medium. Reversal of U18666A (1 microg/ml) effects on overall activity of 5 dpf Danio rerio larvae by different CDs at different concentrations (0.5-5%) were tested. Larvae were pretreated with U18666A for 16 hours and thereafter treated with CD for 24 hours. Statistical analyses were performed for the individual experiments with two way ANOVA's followed by Tukey post hoc tests (** p<0.01). CDs were dissolved in standard E3 medium.
DanioVision Observation Chamber which is a complete system, designed for the high-throughput testing of zebrafish larvae in 48-wells plates. It includes an observation chamber and renowned EthoVision XT video tracking software to quantify distance moved by the animals. The results are graphically represented (distance moved—in arbritrary unit) in FIG. 1.

[3] = Phase solubility study: interaction of cyclodextrins with unesterified cholesterol; assay type: physicochemical; settings: 24 hours equilibration at 25±3° C.
Method: Phase solubility studies were performed in 5 ml solutions at room temperature, wherein cyclodextrin solutions of discrete concentrations were weighed and excess amount of cholesterol was added. After 24 hours equilibration time at 25±3° C. (using magnetic stirrer at 500 RPM), the dissolved equilibrium cholesterol concentrations were determined by HPLC after filtration through a syringe filter having polyethylene sulfone membrane of 0.45 micron nominal pore size. The experimentally determined cholesterol concentrations in the presence of different concentrations of HPBCD, Sualfadex sodium, Subetadex sodium and Sugammadex sodium are listed in Table 3.

[4] = literature studies; cited from earlier work
[5] = dose tested 0.05% in swimming water
[6] = dose tested 0.5% in swimming water

| Compound | Reduction in U18666A induced cholesterol accumulation in the brain ([1]; 0.05%) | Heavy staining (number of larvae) [1, 5] | Light staining (number of larvae) [1, 5] | No staining (number of larvae) [1, 5] | Different from placebo ([1]; dose tested 0.05%) | Motoric activity of the test animals [2] | Dissolved cholesterol concentration ([3]; CD concentration 5 w/w %) [mg/mL] | Dissolved cholesterol concentration ([3]; CD concentration 10 w/w %) [mg/mL] | Dissolved cholesterol concentration ([3]; CD concentration 15 w/w %) [mg/mL] | Reduction in U18666A induced cholesterol accumulation in the brain ([1]; 0.05%, sodium salt) | Reduction in U18666A induced cholesterol accumulation in the brain ([1]; 0.5%) | Heavy staining (number of larvae) [1, 6] | Light staining (number of larvae) [1, 6] | No staining (number of larvae) [1, 6] | Different from placebo ([1]; dose tested 0.5%) | Ototoxicity [4] |
| --- | --- | --- | --- | --- | --- | --- | --- | --- | --- | --- | --- | --- | --- | --- | --- | --- |
| O=C([O-])CCSC[C@H]1O[C@@H]2O[C@H]3[C@H](O)[C@@H](O)[C@@H](O[C@H]4[C@H](O)[C@@H](O)[C@@H](O[C@H]5[C@H](O)[C@@H](O)[C@@H](O[C@H]6[C@H](O)[C@@H](O)[C@@H](O[C@H]7[C@H](O)[C@@H](O)[C@@H](O[C@H]1[C@H](O)[C@H]2O)O[C@@H]7CSCCC(=O)[O-])O[C@@H]6CSCCC(=O)[O-])O[C@@H]5CSCCC(=O)[O-])O[C@@H]4CSCCC(=O)[O-])O[C@@H]3CSCCC(=O)[O-].[Na+].[Na+].[Na+].[Na+].[Na+].[Na+] [Sualfadex sodium, 6A,6B,6C,6D,6E,7F-Hexakis-S-(2-carboxyethyl)-6A,6B,6C,6D,6E,6F-hexathio-alpha-cyclodextrin sodium] | significant cholesterol-accumulation hindering activity; also recorded: very strong reduction | 4 | 16 | 4 | *** (*** p<0.001) | improved motoric activity | 0.016 | 0.028 | 0.051 |  |  |  |  |  |  |  |
| COC[C@H]1O[C@@H]2O[C@H]3[C@H](O)[C@@H](OC)[C@@H](O[C@H]4[C@H](O)[C@@H](OC)[C@@H](O[C@H]5[C@H](O)[C@@H](OC)[C@@H](O[C@H]6[C@H](O)[C@@H](OC)[C@@H](O[C@H]7[C@H](O)[C@@H](OC)[C@@H](O[C@H]8[C@H](O)[C@@H](OC)[C@@H](O[C@H]1[C@H](O)[C@H]2OC)O[C@@H]8COC)O[C@@H]7COC)O[C@@H]6COC)O[C@@H]5COC)O[C@@H]4COC)O[C@@H]3COC [Heptakis(2,6-di-O-methyl)-beta cyclodextrin] | only a small, non-significant, reduction | 13 | 9 | 1 |  |  |  |  |  |  |  |  |  |  |  |  |
| 6A,6B,6C,6D,6E,7F,6G-Heptakis-S-(2-carboxyethyl)-6A,6B,6C,6D,6E,6F,6G-heptathio-beta-cyclodextrin sodium salt [Subetadex sodium] |  | 5 | 15 | 4 | *** (*** p<0.001) | improved motoric activity | 0.062 | 0.092 | 0.246 | significant cholesterol-accumulation hindering activity; also recorded: very strong reduction |  |  |  |  |  |  |
| O=C([O-])CCSC[C@H]1O[C@@H]2O[C@H]3[C@H](O)[C@@H](O)[C@@H](O[C@H]4[C@H](O)[C@@H](O)[C@@H](O[C@H]5[C@H](O)[C@@H](O)[C@@H](O[C@H]6[C@H](O)[C@@H](O)[C@@H](O[C@H]7[C@H](O)[C@@H](O)[C@@H](O[C@H]8[C@H](O)[C@@H](O)[C@@H](O[C@H]9[C@H](O)C(O)[C@@H](O[C@H]1[C@H](O)[C@H]2O)O[C@@H]9CSCCC(=O)[O-])O[C@@H]8CSCCC(=O)[O-])O[C@@H]7CSCCC(=O)[O-])O[C@@H]6CSCCC(=O)[O-])O[C@@H]5CSCCC(=O)[O-])O[C@@H]4CSCCC(=O)[O-])O[C@@H]3CSCCC(=O)[O-].[Na+].[Na+].[Na+].[Na+].[Na+].[Na+].[Na+].[Na+] (stereo partly drawn) [Sugammadex sodium, 6A,6B,6C,6D,6E,7F,6G,6H-Octakis-S-(2-carboxyethyl)-6A,6B,6C,6D,6E,6F,6G,6H-octathio-gamma-cyclodextrin sodium salt] |  | 4 | 15 | 5 | *** (*** p<0.001) | improved motoric activity | 0.056 | 0.062 | 0.150 | significant cholesterol-accumulation hindering activity; also recorded: very strong reduction |  |  |  |  |  |  |
| COC[C@H]1O[C@H]2O[C@H]3[C@H](OC)[C@@H](OC)[C@H](O[C@H]4[C@H](OC)[C@@H](OC)[C@H](O[C@H]5[C@H](OC)[C@@H](OC)[C@H](O[C@H]6[C@H](OC)[C@@H](OC)[C@H](O[C@H]7[C@H](OC)[C@@H](OC)[C@H](O[C@H]8[C@H](OC)[C@@H](OC)[C@H](O[C@H]9[C@H](OC)[C@@H](OC)[C@H](O[C@H]1[C@H](OC)[C@H]2OC)O[C@@H]9COC)O[C@@H]8COC)O[C@@H]7COC)O[C@@H]6COC)O[C@@H]5COC)O[C@@H]4COC)O[C@@H]3COC [Octakis(2,3,6-tri-O-methyl)-gamma cyclodextrin] | only a small, non-significant, reduction | 13 | 11 | 0 |  |  |  |  |  |  |  |  |  |  |  |  |
| CC(O)COC[C@H]1O[C@@H]2O[C@H]3[C@H](O)[C@@H](O)[C@@H](O[C@H]4[C@H](O)[C@@H](O)[C@@H](O[C@H]5[C@H](O)[C@@H](O)[C@@H](O[C@H]6[C@H](O)[C@@H](O)[C@@H](O[C@H]7[C@H](O)[C@@H](O)[C@@H](O[C@H]8[C@H](O)[C@@H](O)[C@@H](O[C@H]1[C@H](O)[C@H]2O)O[C@@H]8COCC(C)O)O[C@@H]7COCC(C)O)O[C@@H]6COCC(C)O)O[C@@H]5COCC(C)O)O[C@@H]4COCC(C)O)O[C@@H]3COCC(C)O (stereo partly drawn) [HPBCD, Hydroxypropyl-β-cyclodextrin] |  |  |  |  |  |  | 0.28 | 0.98 | 2.06 |  | significantly reduced | 9 | 13 | 2 | * (* p<0.05) | ototoxic |
